According to patent publication EP4324461A1, “(E)-N-CINAMOYLAMINOALKANOLES WITH MELANOGENESIS INHIBITORY ACTIVITY” (UNIWERSYTET JAGIELLONSKI, priority 2022, dated 2024):

Columns and labels:
[1] = molecular target: T1, tyrosinase released from B16-F10 cells (Mus musculus, UniProt P11344); test: Inhibition of tyrosinase activity released from B16-F10 cells; format: cell-based, murine; details: α-MSH induced cells, lysate, L-DOPA 0.5 mM
T1 construct: endogenous in cells; host or cells: B16-F10 murine melanoma cells, α-MSH stimulated, Triton X-100 lysate
T1 sequence (P11344 19-533): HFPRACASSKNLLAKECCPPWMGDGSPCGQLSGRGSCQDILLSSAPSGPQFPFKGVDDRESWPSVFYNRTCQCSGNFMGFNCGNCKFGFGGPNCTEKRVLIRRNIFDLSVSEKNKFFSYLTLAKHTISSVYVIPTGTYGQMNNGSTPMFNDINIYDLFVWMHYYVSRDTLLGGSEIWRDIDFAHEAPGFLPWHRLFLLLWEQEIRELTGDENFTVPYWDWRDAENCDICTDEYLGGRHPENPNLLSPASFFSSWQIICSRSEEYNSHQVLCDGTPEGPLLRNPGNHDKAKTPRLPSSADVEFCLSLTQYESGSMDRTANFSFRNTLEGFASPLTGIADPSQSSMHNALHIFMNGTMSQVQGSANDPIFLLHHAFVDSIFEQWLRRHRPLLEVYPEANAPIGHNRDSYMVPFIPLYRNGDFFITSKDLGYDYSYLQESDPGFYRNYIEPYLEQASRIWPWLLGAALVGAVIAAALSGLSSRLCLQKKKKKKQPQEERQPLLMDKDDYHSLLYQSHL
Experimental: 50,000 cells were placed in each well of a 24-well plate (in F10-Ham medium, 1% FBS). After 24 h of culture, the tested compounds were added in fresh medium (DMEM, 1% FBS), with an additional 5 µM of α-melanocorticotropic hormone (α-MSH) in the medium to induce melanogenesis. Three wells on the plate constituted a control sample without the melanogenesis inducer (α-MSH) and without the tested compounds. After 24 hours of incubation under these conditions, the medium was removed and the cells were washed twice with PBS. 100 µL of lysis buffer composed of 90 µL of 50 mM potassium phosphate buffer, 5 µL of 0.1 mM phenylmethylsulfonyl fluoride and 5 µL of 1% Triton X-100 were added to the wells. The plates were placed at -80 °C for 30 minutes. Cell lysates were then centrifuged for 30 min (4 °C, 12,000 rpm), and then 80 µL of the supernatant was transferred to 96-well plates. […] After a 30-minute incubation, the absorbance was measured at 475 nm using a microplate reader. The percentage of inhibition of tyrosinase activity was calculated using the formula: [(AC -AT)/AC] × 100, where AC - is the absorbance of the negative control (from wells in which cells were cultured without the tested compounds), AT - is the absorbance of the sample from wells in which cells were cultured in the presence of the test compound.

[2] = system: human reconstructed epidermis Episkin™; test: Skin permeation in reconstructed human epidermis (Episkin); format: in vitro ADME
Experimental: The tested substance A-111 in a macrogol formulation (2% A-111 in the PEG400+PEG800 base) was applied onto the epidermis in an amount of approximately 10 mg/cm^2 ("finite dose application") using a sterile inoculation loop. The amount applied was weighed accurately. As a control, a macrogol formulation without the test substance was applied onto the epidermis. The finished experimental plate was incubated at 32 °C. At specific time intervals, aliquots of the receptor fluid (0.5 mL) were collected for the analysis and replaced with 0.5 mL of fresh receptor fluid. After 24 h of culture, all of the receptor fluid was collected. The examined tissue was washed with cotton buds soaked in methanol. The donor and receptor compartments were washed with methanol, and the epidermis was separated from the inserts and transferred to methanol. Samples were stored at -20 °C until analysis. The content (concentration) of the tested substance A-111 in the receptor fluid and in individual compartments: on the surface of the epidermis, in the epidermis, in the receptor fluid was determined using measurements in a microplate reader at 281 nm on 96-well plates transmitting ultraviolet radiation.
In order to confirm proper bioavailability, studies of the permeation of compound A-111 from a solution in PEG400 were performed in a model of reconstructed human epidermis. […] The tested substance A-111 was applied onto the epidermis in the form of a 2% PEG400 solution in an amount of 15 µL. The finished experimental plate was incubated at 32 °C. At specific time intervals, aliquots of the receptor fluid (0.5 mL) were collected for the analysis and replaced with fresh fluid. After 24 h of culture, all of the receptor fluid was collected. The examined tissue was washed with cotton buds soaked in methanol. The donor and receptor compartments were washed with methanol, and the epidermis was separated from the inserts and transferred to methanol. The content (concentration) of the tested substance A-111 in the acceptor fluid and in individual compartments: on the surface of the epidermis, in the epidermis, in the receptor fluid was determined using measurements in a microplate reader at 281nm on 96-well plates transmitting ultraviolet radiation.
Permeation studies of the A-111 compound from a cosmetic formulation were performed in a model of reconstructed human epidermis. […] 25 µL of the formulation containing the tested compound A-111 was applied to the epidermis. […] The content (concentration) of the tested substance A-111 in the receptor fluid and in individual compartments: on the surface of the epidermis, in the epidermis, in the receptor fluid was determined using measurements in a microplate reader at 281 nm on 96-well plates transmitting ultraviolet radiation.

[3] = system: Balb/c 3T3 murine fibroblast cell line; test: Phototoxicity in Balb/c 3T3 fibroblasts (neutral red uptake); details: for phototoxic potential: Balb/c 3T3, neutral red uptake; for PIF: photoirritation factor: ratio of IC50 of unirradiated to irradiated cells; for cytotoxicity towards the mouse fibroblasts: with and without exposure to UVA
Experimental: Balb/c 3T3 cells, which are an immortalized murine fibroblast cell line, were purchased at ATTC and cultured in the medium recommended by the manufacturer (DMEM GlutaMAX, newborn calf serum (BCS), antibiotics). After multiplication, cells were placed in 96-well plates, which were incubated for 24 hours, after which all wells of the plates were washed with 150 µL of balanced salt solution (HBSS). Then, after drying the plates, 100 µL of a solution of the tested compounds in HBSS with 2% FBS was added to each well and incubated for an hour. After this time, some of the plates were irradiated using the Suntest CPS+ sunlight simulator from Atlas with appropriate filters cutting off radiation with a wavelength <320 nm (UVA radiation intensity 5 J/cm^2). The second part of the plates was placed in radiation-free conditions for the same period of time. After the exposure time, the liquid was removed from all plates and the wells were washed twice with 150 µL of HBSS, then supplemented with fresh culture medium and incubated for 24 hours in an incubator (37 °C, 5% CO2). Viability was assessed in the neutral red uptake test, which is based on the ability of the dye to penetrate only into living cells. Dye uptake was confirmed by absorbance measurement at 540 nm. […] The appropriate coefficients were also calculated: mean phototoxic effect (MPE) and photoirritation factor (PIF). PIF is the ratio of the IC50 values of unirradiated to irradiated cells, while MPE is based on the comparison of concentration-response curves. […]

[4] = 2% A-111 in the PEG400+PEG800 base, approx. 10 mg/cm^2, 24 h

O=C(/C=C/c1ccc(Cl)cc1)NCCCCCO [Compound A-111, (2E)-3-(4-chlorophenyl)-N-(5-hydroxypentyl)prop-2-enamide]
inhibition of tyrosinase activity released from B16-F10 cells [1]: inhibit the activity of tyrosinase released from B16-F10 cells
accumulation in the epidermis [2, 4]: no accumulation of compound A-111 in the epidermis
permeation through the epidermis [2, 4]: crosses the epidermal barrier and has the potential to penetrate the dermis
permeation through the epidermis ([2]; 2% PEG400 solution, 15 µL, 24 h): crosses the epidermal barrier and has the potential to penetrate the dermis
permeation through the epidermis ([2]; 25 µL of the cosmetic formulation (0.74% A-111), 24 h): crosses the epidermal barrier and has the potential to penetrate the dermis
phototoxic potential [3]: do not have phototoxic potential
PIF [3]: No phototoxicity
cytotoxicity towards the mouse fibroblasts [3]: devoid of cytotoxicity

O=C(/C=C/c1ccccc1)NCCCCCO [Compound A-133, (2E)-N-(5-hydroxypentyl)-3-phenylprop-2-enamide]
phototoxic potential [3]: do not have phototoxic potential
PIF [3]: No phototoxicity
cytotoxicity towards the mouse fibroblasts [3]: devoid of cytotoxicity
